For assay [1], the system named is BJ. Put plainly: cytotoxicity toward BJ-TERT fibroblasts, dose response, cell-based, RAS-independent, luminescence (AID 1933). As to conditions: Homo sapiens. In kind it is functional.
For assay [2], the system named is BJ. Put plainly: cytotoxicity toward Ras-transformed BJeLR fibroblasts, dose response, cell-based, alamar blue fluorescence, cherrypicked samples (AID 2631).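 Note: confirmatory dose-response assay in RAS-dependent BJ fibroblasts engineered with TERT, LT and ST, with cytotoxicity read by fluorescence.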 As to conditions: Homo sapiens. In kind it is functional.
Assay [3] in a line: cytotoxicity toward DRD oncogenic fibroblasts, dose response, cell-based, non-viral oncogenic, luminescence (AID 1934). The assay is classed as functional. As to conditions: Homo sapiens.
The target of assay [4] is T1, Replicative DNA helicase DnaB (Mycobacterium tuberculosis, UniProt P9WMR3).
T1 sequence (P9WMR3 whole entry): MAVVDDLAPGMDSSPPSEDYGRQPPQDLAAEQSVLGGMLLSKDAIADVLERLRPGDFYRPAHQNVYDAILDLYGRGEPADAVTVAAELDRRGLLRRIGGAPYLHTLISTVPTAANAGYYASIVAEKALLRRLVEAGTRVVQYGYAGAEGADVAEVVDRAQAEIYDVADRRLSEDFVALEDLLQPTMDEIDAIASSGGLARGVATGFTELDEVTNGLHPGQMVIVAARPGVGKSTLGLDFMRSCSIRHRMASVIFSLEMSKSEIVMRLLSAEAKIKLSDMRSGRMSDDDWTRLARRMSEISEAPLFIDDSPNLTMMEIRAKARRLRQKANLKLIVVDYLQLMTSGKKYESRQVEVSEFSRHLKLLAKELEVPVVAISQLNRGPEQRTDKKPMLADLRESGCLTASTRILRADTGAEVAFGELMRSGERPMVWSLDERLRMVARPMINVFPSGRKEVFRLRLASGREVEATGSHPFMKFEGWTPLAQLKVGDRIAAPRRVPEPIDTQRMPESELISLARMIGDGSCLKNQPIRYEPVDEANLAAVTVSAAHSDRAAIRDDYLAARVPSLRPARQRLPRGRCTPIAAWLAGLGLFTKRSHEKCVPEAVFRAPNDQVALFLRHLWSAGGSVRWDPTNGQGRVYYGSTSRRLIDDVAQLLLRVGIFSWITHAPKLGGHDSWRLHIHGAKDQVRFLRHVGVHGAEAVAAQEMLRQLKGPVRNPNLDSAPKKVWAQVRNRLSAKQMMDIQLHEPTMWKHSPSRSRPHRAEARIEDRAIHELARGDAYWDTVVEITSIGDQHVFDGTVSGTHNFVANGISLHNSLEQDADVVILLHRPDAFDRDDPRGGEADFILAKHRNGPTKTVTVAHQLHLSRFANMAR
Put plainly: DnaB intein splicing inhibitors, dose response, biochemical, cell-free fluorescence (AID 449749). The assay is classed as functional.

The nature of assay [5]: non-specific cell cytotoxicity, dose response, cytotoxicity control for PAX8 inhibitor project, plate reader, dry powder samples (AID 743021). In kind it is functional, cell-based.
For a further assay, the target named is T2, Protein RecA (Mycobacterium tuberculosis, UniProt P9WHJ3).
T2 sequence (P9WHJ3 whole entry): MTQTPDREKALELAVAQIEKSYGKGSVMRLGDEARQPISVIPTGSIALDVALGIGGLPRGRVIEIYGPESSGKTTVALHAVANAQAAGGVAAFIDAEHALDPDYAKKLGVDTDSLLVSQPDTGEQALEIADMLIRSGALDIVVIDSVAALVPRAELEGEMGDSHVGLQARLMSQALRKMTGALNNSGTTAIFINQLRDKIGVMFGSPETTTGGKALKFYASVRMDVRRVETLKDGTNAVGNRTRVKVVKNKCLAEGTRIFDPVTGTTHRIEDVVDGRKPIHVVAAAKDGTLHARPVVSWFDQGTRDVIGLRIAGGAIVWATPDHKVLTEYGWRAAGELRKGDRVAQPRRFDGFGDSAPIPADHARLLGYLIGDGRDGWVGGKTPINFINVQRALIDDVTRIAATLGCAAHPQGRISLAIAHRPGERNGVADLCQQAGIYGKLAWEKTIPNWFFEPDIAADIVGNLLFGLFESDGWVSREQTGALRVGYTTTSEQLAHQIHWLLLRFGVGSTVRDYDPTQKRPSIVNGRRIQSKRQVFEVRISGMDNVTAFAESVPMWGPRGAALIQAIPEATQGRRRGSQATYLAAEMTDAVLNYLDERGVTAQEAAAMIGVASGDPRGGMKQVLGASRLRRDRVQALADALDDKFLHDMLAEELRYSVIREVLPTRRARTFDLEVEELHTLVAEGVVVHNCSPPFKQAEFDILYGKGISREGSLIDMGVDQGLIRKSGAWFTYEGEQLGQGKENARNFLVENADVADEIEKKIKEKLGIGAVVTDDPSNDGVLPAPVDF
Put plainly: Fluorescence Cell-Free Homogeneous Dose Retest to Identify Inhibitors of RecA-Intein Splicing Activity. [Related pubchem assays (depositor defined):AID2097, AID2223, AID489010, AID492950]. In kind it is functional.

A further assay deals with Paired box protein Pax-8 (Homo sapiens, UniProt Q06710). Put plainly: inhibitors of PAX8-driven TPO luciferase reporter, dose response, RMG-I cells, cherry-pick (AID 687027).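 Note: luciferase reporter driven by Pax8 target thyroperoxidase promoter measured by SteadyGlo luminescence.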 In kind it is functional, cell-based. On the technique in general: Reporter assays use an easily measured gene product as a stand-in for the process of interest.
Chain of Paired box protein Pax-8 (Q06710 whole entry): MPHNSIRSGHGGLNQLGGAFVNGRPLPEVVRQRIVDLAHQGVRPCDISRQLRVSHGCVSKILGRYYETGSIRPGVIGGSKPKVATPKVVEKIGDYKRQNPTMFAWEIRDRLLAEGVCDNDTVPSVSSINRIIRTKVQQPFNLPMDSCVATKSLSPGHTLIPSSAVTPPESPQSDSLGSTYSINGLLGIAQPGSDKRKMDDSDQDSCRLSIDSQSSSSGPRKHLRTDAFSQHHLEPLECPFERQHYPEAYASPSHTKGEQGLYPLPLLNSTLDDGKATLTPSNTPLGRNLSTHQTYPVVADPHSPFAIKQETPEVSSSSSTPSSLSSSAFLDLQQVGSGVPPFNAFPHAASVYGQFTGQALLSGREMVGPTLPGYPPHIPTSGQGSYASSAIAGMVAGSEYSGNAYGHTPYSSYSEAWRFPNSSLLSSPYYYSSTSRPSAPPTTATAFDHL
The target in assay [6] is T3, Microphthalmia-associated transcription factor (Homo sapiens, UniProt O75030).
T3 sequence (O75030 whole entry): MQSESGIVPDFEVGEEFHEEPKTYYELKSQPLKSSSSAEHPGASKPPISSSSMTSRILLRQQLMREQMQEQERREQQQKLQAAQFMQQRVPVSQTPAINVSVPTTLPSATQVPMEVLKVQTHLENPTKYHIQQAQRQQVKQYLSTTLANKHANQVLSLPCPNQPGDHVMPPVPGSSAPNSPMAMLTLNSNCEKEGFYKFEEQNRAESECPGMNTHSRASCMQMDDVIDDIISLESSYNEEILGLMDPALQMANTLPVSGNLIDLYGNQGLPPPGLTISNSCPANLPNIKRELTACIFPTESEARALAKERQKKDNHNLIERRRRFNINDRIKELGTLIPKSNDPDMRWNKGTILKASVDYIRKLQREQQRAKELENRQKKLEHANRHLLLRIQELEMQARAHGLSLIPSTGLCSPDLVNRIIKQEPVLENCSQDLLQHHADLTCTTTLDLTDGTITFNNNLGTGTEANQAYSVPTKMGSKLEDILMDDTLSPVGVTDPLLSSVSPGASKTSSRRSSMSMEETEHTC
Put plainly: TRPM1 promoter luciferase signal decrease, dose response, MITF inhibitor project, cell-based, SK-MEL-5, cherry-picked, set 3 (AID 493073).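 Note: SK-MEL-5 melanoma cells with luciferase driven by the MITF target TRPM1 promoter.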 The assay is classed as functional.

The nature of assay [7]: Luminescent dose response cell-based high throughput screening assay for inhibitors of the Janus kinase 2 mutant JAK2V617F. [Related pubchem assays: 1446 (Primary screen.), 1521 (Confirmation assay.), 1486 (Counter screen.)]. The assay is classed as functional. On the technique in general: The purpose of a counterscreen is to sort out artefacts and off-target activity.
The test system of assay [8] is BJ. Put plainly: cytotoxicity toward BJ-TERT-LT-ST fibroblasts, dose response, cell-based, RAS-independent, luminescence (AID 1935).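 Note: BJ fibroblasts immortalized with TERT plus LT and ST oncogenes.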 In kind it is functional. The note with it: Homo sapiens.
Assay [9] concerns BJ. Put plainly: cells. The assay is classed as functional, cell-based. As to conditions: Homo sapiens.
In assay [10] the target is Peroxisome proliferator-activated receptor gamma/Nuclear receptor coactivator 1 (Homo sapiens, UniProt P37231). The assay is classed as functional.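 Note: agonist potency as compounds enhance coactivator SRC-1 recruitment to PPARgamma.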
Chain of Peroxisome proliferator-activated receptor gamma/Nuclear receptor coactivator 1 (P37231 whole entry): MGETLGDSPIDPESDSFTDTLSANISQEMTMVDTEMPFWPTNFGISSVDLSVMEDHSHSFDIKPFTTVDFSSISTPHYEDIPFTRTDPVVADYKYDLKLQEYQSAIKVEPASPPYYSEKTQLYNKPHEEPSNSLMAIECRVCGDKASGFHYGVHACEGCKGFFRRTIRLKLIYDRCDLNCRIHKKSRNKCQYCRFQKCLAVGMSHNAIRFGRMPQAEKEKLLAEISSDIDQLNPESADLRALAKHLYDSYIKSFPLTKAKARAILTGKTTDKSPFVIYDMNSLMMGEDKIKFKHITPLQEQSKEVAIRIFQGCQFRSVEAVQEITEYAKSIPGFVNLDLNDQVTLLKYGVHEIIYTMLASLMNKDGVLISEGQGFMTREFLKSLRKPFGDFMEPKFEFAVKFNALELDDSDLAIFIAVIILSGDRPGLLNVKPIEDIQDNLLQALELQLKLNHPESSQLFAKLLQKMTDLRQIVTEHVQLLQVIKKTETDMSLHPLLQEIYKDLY
Chain of Peroxisome proliferator-activated receptor gamma/Nuclear receptor coactivator 1 (Q15788 whole entry, further chain): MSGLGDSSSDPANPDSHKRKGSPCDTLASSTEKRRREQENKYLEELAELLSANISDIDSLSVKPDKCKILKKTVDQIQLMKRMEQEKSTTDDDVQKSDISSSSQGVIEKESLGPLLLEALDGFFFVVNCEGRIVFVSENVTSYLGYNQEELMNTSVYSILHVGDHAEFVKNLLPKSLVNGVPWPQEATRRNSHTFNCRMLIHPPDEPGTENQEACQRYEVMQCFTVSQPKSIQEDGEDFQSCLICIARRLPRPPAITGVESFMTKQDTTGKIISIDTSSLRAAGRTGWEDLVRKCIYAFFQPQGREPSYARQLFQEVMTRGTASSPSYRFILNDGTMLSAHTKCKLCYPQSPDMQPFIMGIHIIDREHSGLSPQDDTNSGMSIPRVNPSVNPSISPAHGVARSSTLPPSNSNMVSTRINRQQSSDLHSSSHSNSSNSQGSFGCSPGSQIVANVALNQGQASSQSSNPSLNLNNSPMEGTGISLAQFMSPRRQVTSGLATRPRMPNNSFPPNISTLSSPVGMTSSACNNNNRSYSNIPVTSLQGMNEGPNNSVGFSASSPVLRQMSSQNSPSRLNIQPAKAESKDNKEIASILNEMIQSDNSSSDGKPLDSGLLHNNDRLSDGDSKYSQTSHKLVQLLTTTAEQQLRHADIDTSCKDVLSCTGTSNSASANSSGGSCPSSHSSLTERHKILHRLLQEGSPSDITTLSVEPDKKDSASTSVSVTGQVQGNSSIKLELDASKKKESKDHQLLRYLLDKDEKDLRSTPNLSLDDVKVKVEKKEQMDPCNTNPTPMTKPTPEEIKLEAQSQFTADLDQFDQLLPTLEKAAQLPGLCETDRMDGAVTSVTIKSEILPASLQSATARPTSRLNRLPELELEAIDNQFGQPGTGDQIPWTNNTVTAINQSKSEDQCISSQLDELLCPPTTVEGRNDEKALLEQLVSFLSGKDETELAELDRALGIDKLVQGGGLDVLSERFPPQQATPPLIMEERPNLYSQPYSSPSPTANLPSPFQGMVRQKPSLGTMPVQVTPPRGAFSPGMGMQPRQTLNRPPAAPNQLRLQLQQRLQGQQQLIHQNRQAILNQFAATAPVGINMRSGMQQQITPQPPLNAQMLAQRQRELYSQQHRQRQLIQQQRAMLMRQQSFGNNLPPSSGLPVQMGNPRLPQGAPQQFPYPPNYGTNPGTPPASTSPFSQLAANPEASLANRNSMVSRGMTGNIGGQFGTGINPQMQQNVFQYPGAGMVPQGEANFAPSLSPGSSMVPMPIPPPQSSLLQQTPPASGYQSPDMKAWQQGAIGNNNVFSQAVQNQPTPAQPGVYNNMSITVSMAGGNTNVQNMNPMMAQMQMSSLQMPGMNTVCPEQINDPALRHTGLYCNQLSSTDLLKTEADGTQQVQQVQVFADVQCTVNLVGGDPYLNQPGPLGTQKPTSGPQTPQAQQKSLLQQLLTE
Assay [11] deals with Peroxisome proliferator-activated receptor gamma/Nuclear receptor coactivator 3 (Homo sapiens, UniProt P37231). The assay is classed as functional.
Assay [12] deals with Peroxisome proliferator-activated receptor gamma/Nuclear receptor coactivator 2 (Homo sapiens, UniProt P37231). In kind it is functional.
Chain of Peroxisome proliferator-activated receptor gamma/Nuclear receptor coactivator 2 (P37231 whole entry): as the sequence (P37231 whole entry) above
Chain of Peroxisome proliferator-activated receptor gamma/Nuclear receptor coactivator 2 (Q15596 whole entry, further chain): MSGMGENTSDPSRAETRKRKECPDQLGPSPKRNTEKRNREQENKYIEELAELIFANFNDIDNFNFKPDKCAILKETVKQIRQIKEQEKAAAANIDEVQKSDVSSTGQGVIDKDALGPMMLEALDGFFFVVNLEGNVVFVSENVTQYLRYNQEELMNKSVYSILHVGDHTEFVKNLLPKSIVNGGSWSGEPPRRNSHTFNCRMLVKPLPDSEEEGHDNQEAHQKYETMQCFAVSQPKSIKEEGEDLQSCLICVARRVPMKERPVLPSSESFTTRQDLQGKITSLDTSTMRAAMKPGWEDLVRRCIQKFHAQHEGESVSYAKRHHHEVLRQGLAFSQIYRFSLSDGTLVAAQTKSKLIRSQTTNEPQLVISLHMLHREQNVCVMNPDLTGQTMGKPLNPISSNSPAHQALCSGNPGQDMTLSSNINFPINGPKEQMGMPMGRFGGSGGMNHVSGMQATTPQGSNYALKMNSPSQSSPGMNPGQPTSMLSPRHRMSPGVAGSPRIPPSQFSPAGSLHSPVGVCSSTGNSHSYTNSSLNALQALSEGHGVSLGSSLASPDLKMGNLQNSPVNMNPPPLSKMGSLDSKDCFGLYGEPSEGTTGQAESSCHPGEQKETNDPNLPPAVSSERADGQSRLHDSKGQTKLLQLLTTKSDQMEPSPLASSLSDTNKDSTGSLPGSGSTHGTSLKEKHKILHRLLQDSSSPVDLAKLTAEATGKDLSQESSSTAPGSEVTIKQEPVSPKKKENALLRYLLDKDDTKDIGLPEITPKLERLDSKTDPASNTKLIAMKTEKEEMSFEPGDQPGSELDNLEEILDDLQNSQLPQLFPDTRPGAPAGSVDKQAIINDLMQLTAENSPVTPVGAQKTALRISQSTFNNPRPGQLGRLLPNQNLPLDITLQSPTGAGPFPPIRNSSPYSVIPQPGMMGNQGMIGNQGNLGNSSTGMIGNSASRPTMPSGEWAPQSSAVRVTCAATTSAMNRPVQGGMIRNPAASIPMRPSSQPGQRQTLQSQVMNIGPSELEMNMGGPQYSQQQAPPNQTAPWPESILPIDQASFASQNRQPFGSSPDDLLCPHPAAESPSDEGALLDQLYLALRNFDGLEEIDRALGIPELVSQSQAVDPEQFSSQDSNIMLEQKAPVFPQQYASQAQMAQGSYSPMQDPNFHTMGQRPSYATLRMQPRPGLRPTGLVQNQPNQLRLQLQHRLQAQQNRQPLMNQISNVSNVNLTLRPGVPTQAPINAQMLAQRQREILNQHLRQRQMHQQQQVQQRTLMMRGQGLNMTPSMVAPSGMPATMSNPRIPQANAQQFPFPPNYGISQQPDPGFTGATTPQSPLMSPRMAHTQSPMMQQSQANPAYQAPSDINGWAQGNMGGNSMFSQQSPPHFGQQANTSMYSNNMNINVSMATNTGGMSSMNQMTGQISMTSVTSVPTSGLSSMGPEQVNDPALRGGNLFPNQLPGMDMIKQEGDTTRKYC
For assay [13], the target named is T4, Corticotropin-releasing factor receptor 2/Corticotropin-releasing factor-binding protein (Homo sapiens, UniProt P24387+Q13324).
T4 sequence (Q13324 whole entry): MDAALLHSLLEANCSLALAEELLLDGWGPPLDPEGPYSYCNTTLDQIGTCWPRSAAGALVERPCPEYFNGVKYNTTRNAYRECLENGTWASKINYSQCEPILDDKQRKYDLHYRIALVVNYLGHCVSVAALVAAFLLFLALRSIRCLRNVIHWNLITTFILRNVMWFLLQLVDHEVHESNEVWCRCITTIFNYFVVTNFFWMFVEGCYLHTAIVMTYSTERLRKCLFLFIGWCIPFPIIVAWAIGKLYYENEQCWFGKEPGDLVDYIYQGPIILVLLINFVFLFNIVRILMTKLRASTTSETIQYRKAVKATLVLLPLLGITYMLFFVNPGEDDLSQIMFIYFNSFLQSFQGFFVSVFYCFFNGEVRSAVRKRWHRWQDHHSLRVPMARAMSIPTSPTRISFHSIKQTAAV
T4 sequence (P24387 whole entry): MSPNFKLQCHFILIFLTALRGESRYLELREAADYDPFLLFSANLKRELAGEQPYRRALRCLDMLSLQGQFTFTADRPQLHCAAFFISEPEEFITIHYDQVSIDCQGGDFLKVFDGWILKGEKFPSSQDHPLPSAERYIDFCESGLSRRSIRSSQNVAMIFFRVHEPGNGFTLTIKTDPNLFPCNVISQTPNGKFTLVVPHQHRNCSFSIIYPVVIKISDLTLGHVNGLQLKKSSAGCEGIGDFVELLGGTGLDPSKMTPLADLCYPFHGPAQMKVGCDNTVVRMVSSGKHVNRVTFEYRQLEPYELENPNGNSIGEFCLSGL
Put plainly: activators of CRF receptor 2 with binding protein – uHTS hits, confirmation (AID 602473). In kind it is functional. As to conditions: read-out: EC50_Mean.

Assay [14] deals with Peroxisome proliferator-activated receptor gamma/Nuclear receptor corepressor 2 (Homo sapiens, UniProt P37231+Q9Y618). Put plainly: Counterscreen for NR2E3 inverse agonists: TR-FRET-based biochemical high throughput dose response assay to identify inverse agonists of the interaction between peroxisome proliferator-activated receptor gamma (PPARg) and nuclear receptor co-repressor 2 (NCOR2). The assay is classed as functional.

In assay [15] the target is T4, Corticotropin-releasing factor receptor 2/Corticotropin-releasing factor-binding protein. Put plainly: Dose Response confirmation of uHTS hits for small molecule antagonists of the CRF-binding protein and CRF-R2 receptor complex. In kind it is functional. The note with it: read-out: IC50_Mean.
In assay [16] the target is Photoreceptor-specific nuclear receptor (Homo sapiens, UniProt Q9Y5X4). Put plainly: NR2E3 inverse agonists, dose response, biochemical, TR-FRET (AID 463256). The assay is classed as functional. In general terms: In TR-FRET formats the signal depends on donor and acceptor labels being close together.
Chain of Photoreceptor-specific nuclear receptor (Q9Y5X4 whole entry): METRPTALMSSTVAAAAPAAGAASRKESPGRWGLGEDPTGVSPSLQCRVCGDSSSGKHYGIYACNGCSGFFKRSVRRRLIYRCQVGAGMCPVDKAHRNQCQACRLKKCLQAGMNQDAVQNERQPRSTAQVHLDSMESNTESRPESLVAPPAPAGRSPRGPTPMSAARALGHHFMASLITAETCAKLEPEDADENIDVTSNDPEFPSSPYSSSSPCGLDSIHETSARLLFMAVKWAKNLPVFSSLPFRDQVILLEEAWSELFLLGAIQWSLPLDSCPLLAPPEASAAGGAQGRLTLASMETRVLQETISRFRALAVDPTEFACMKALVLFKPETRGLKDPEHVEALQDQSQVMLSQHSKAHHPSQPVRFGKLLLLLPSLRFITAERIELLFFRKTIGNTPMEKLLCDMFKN

The source of these data is ChEMBL document CHEMBL1201862, “PubChem BioAssay data set” (2004).

Activity calls are given as the source filed them.

As to `COc1ccccc1N(C(=O)CCl)c1cn(C(C)=O)c2ccccc12`, the EC50 in the assay with BJ [1] is 5.21 µM (inconclusive); with BJ [2], 1.52 µM (active); in [3], 3.11 µM (active); at Protein RecA, 0.846 µM (active); with BJ [8], > 150 µM (inconclusive); with BJ [9], 5.64 µM (active). In addition, the half-maximal activity concentration (AC50) in assay [4] was 12.8 µM (active); in [5], 3.66 µM (active); on Paired box protein Pax-8, 1.56 µM (active); in [6] it was 8.82 µM (active). For the same compound, the IC50 in assay [7] is 1.2 µM (active).

As for `Cc1cc(C)c(S(=O)(=O)Nc2ccc3[nH]c(O)nc3c2)c(C)c1`, the EC50 in [10], in [11] and in assay [12] was > 79.4 µM (not active) each time.

On to `CC(=O)c1ccc(NC(=O)CSc2ccc(-c3ccc4c(c3)OCO4)nn2)cc1`, for which the EC50 in assay [13] is > 53 µM (inactive). Besides, the IC50 in [14] is 2.9 µM (active); in [15], > 47.1 µM (inactive); in assay [16] it was 3.53 µM (active).

By AC50 is commonly meant the midpoint of the concentration-response curve, whichever way the signal moves.
